# ChEMBL document CHEMBL2440056, “α-Glucosidase-inhibitory iminosugars from the leaves of Suregada glomerulata” (Bioorg Med Chem, 2013)
# pIC50: −log10 of the molar value.
# Key:
# [1] = Inhibition of rat intestinal alpha-glucosidase using sucrose as substrate assessed as glucose formation incubated for 10 mins prior to substrate addition measured after 30 mins by glucose oxidase method
# [2] = test system: Mus musculus; assay: Hypoglycemic effect in sucrose-challenged ICR mouse assessed as glucose AUC at 10 mg/kg, po by glucose oxidase method (reference value: 323.2 +/- 37.2 mg.hr/dL); assay type: functional, organism-based; design: dose 10 mg/kg
# [3] = test system: Mus musculus; assay: Hypoglycemic effect in starch-challenged ICR mouse assessed as blood glucose level at 10 mg/kg, po after 120 mins by glucose oxidase method (reference value: 174.2 +/- 22.9 mg/dL); assay type: functional
# [4] = test system: Mus musculus; assay: Hypoglycemic effect in starch-challenged ICR mouse assessed as blood glucose level at 10 mg/kg, po after 60 mins by glucose oxidase method (reference value: 243.0 +/- 29.0 mg/dL); assay type: functional
# [5] = test system: Mus musculus; assay: Hypoglycemic effect in sucrose-challenged ICR mouse assessed as blood glucose level at 10 mg/kg, po after 60 mins by glucose oxidase method (reference value: 183.3 +/- 29.1 mg/dL); assay type: functional
# [6] = test system: Mus musculus; assay: Hypoglycemic effect in starch-challenged ICR mouse assessed as blood glucose level at 10 mg/kg, po after 30 mins by glucose oxidase method (reference value: 278.9 +/- 33.5 mg/dL); assay type: functional
# [7] = test system: Mus musculus; assay: Hypoglycemic effect in starch-challenged ICR mouse assessed as glucose AUC at 10 mg/kg, po by glucose oxidase method (reference value: 430.1 +/- 44.7 mg.hr/dL); assay type: functional, organism-based; design: dose 10 mg/kg
# [8] = test system: Mus musculus; assay: Hypoglycemic effect in sucrose-challenged ICR mouse assessed as blood glucose level at 10 mg/kg, po after 120 mins by glucose oxidase method (reference value: 137.8 +/- 14.5 mg/dL); assay type: functional
# [9] = test system: Mus musculus; assay: Hypoglycemic effect in sucrose-challenged ICR mouse assessed as blood glucose level at 10 mg/kg, po after 30 mins by glucose oxidase method (reference value: 187.4 +/- 21.6 mg/dL); assay type: functional
SMILES,pIC50 [1],AUC [2],Activity [3],Activity [4],Activity [5],Activity [6],AUC [7],Activity [8],Activity [9]
C[C@H]1N[C@H](CO)[C@@H](O)[C@H](O)[C@H]1O,4.66,,,,,,,,
CCCCN1[C@H](CO[C@@H]2O[C@H](CO)[C@@H](O)[C@H](O)[C@H]2O)[C@H](O)[C@@H](O)[C@H](O)[C@H]1CO,4.64,,,,,,,,
CN1[C@H](CO[C@@H]2O[C@H](CO)[C@@H](O)[C@H](O)[C@H]2O)[C@H](O)[C@@H](O)[C@H](O)[C@H]1CO,4.61,,,,,,,,
CN1[C@H](CO)[C@@H](O)C[C@@H](O)[C@@H]1CO,4.65,,,,,,,,
OC[C@H]1N[C@H](CO)[C@@H](O)[C@@H](O)[C@H]1O,4.60,,,,,,,,
OC[C@@H]1N[C@H](CO)[C@@H](O)[C@H](O)[C@H]1O,4.61,,,,,,,,
OC[C@H]1N[C@H](CO[C@H]2O[C@H](CO)[C@@H](O)[C@H](O)[C@H]2O)[C@H](O)[C@@H](O)[C@@H]1O,4.41,,,,,,,,

# These reach a higher pIC50 [1]. Values come first.
pIC50 [1],SMILES,AUC [2],Activity [3],Activity [4],Activity [5],Activity [6],AUC [7],Activity [8],Activity [9]
4.70,CN1[C@H](CO)[C@H](O)C[C@H](O)[C@H]1CO,,,,,,,,
4.72,OC[C@@H]1N[C@H](CO)[C@@H](O)[C@H](O)[C@@H]1O,,,,,,,,
5.26,OCCCCCCCC[C@H]1N[C@H](CO)[C@@H](O)[C@H](O)[C@H]1O,,,,,,,,
5.37,OC[C@H]1N[C@H](CO[C@@H]2O[C@H](CO)[C@@H](O)[C@H](O)[C@H]2O)[C@H](O)[C@@H](O)[C@@H]1O,2.58e+06 ng·h/mL,146.8 mg/dL,204.1 mg/dL,135.1 mg/dL,187.1 mg/dL,3.41e+06 ng·h/mL,133.3 mg/dL,130.8 mg/dL
6.04,OC[C@@H](O)[C@H]1N[C@H](CO)[C@@H](O)[C@@H]1O,2.94e+06 ng·h/mL,150.3 mg/dL,216.2 mg/dL,147.3 mg/dL,262.8 mg/dL,3.9e+06 ng·h/mL,136.7 mg/dL,179 mg/dL
6.14,C[C@@H]1[C@H](O)[C@@H](O)[C@H](O)[C@@H](CO)N1C,,,,,,,,
6.27,C[C@H]1O[C@H](O[C@H]2[C@H](O)[C@@H](O)[C@@H](O[C@H]3[C@H](O)[C@@H](O)C(O)O[C@@H]3CO)O[C@@H]2CO)[C@H](O)[C@@H](O)[C@@H]1N[C@H]1C=C(CO)[C@@H](O)[C@H](O)[C@H]1O (stereo partly specified) [ACARBOSE],2.23e+06 ng·h/mL,177.5 mg/dL,187.7 mg/dL,118.4 mg/dL,164.8 mg/dL,3.34e+06 ng·h/mL,111.9 mg/dL,114.6 mg/dL
7.05,OC[C@H]1N[C@H](CO)[C@@H](O)[C@H](O)[C@H]1O,2.68e+06 ng·h/mL,161.2 mg/dL,176.4 mg/dL,149.9 mg/dL,129.3 mg/dL,2.99e+06 ng·h/mL,136.4 mg/dL,126 mg/dL
7.10,CN1[C@H](CO)[C@H](O)[C@@H](O)[C@H](O)[C@H]1CO,2.28e+06 ng·h/mL,141.2 mg/dL,144.8 mg/dL,114 mg/dL,141 mg/dL,2.72e+06 ng·h/mL,115.6 mg/dL,121.4 mg/dL
